Series [1] addresses pig alpha-2-delta receptor 2 (A2DR2) (UniProt A0A8W4FF87). As to the kind of experiment: [3H]Gabapentin scintillant proximity A2DR2 binding assay (A2DR2 SPA, Biological Method 5). As to conditions: displacement of [3H]-gabapentin. The procedure:
(§1) Recombinant HEK 293 cells expressing pig A2DR1 and A2DR2 subunits were grown under normal cell culture conditions (RPMI-1640 media with 10% FBS, 200 μg G418, and 1% penicillin/streptomycin 1t 37° C. with 5% CO2) until reaching confluency in T-75 flasks, at which time they were harvested. The harvested cells were suspended in ice-cold 5 mM Tris/5 mM ethylenediaminetetraacetic acid (“EDTA”) buffer, pH 7.4 (“TE buffer”) containing phenylmethylsulfonyl fluoride (“PMSF”) (0.1 mM) and Roche Complete Protease Inhibitor Cocktail, and allowed to sit on ice for 30 minutes. The cells were broken by sonication using 20 bursts, 40-50 cycles, and then centrifuged at 3000×g for 10 minutes. The resulting supernatant was transferred to a new tube and centrifuged at 50,000×g for 30 minutes. The resulting pellet was resuspended in 10 mM HEPES buffer, pH 7.4, homogenized, and stored at—80° C. The A2DR1 or A2DR2 membrane protein concentration was determined by the Pierce BCA method using bovine serum albumin (“BSA”) as the standard.
(§2) The [^3H]gabapentin SPA binding assay was performed in Costar 3632 96-well, clear bottom assay plates using Wheatgerm agglutinin beads (Amersham Pharmacia Biotech). Pig A2DR1 or A2DR2 membranes (10-20 μg protein per well) prepared above in Step (1) and SPA beads (0.5 mg per well) were mixed with 30 nM [^3H]gabapentin (52 Ci/mmol; Amersham Pharmacia Biotech) in 10 mM HEPES/10 mM MgSO4 assay buffer, pH 7.4 using KOH. The final well volume was 200 μL and non-specific binding was determined in the presence of 10 μM unlabeled pregabalin. The final mixture containing A2DR1 or A2DR2 membrane protein incubated with SPA beads, test compounds, and [^3H]gabapentin was incubated at room temperature for 15-24 hours, and the plates were then counted on a Wallace Trilux 1450 Microbeta scintillation counter. Step (3): Determination of IC50 values
(§3) Curve fitting and IC50 values were calculated using a four-parameter, non-linear regression equation from GraphPad Prism 3.0 software, while Ki values were determined using the equation of Chang and Prussoff.
On the technique in general: Loss of bound radioactivity is the signal in a displacement assay; it reports binding, not function.

Series [2] deals with pig alpha-2-delta receptor 1 (A2DR1) (Sus scrofa, UniProt A0A287BIN3). As to the kind of experiment: [3H]Gabapentin scintillant proximity A2DR1 binding assay (A2DR1 SPA, Biological Method 5). Conditions: displacement of [3H]-gabapentin. Here is the method:
as §1, §2, §3

Series [3] in a line: Drug plasma half-life assay (DPH-LA) and bioavailability in rat. As to conditions: male. Format: in vivo. The procedure:
Three fasted male Sprague-Dawley rats are dosed by intravenous infusion via cannula over 5 minutes of 3 mg/kg of invention compound in 1.0 mL saline solution, and the cannulas were each rinsed with 1.0 mL saline solution immediately following infusion. Animals are fed at 4 hours post dose. Blood samples are collected by conventional means in tubes containing ethylenediaminetetraacetic acid (“EDTA”) at Times 0 (predose), 0.083 (end of infusion), 0.25, 0.5, 1, 2, 4, 6, 8, 12, and 24 hours post dose. Plasma is separated from the blood and stored frozen until analyzed by conventional high performance liquid chromatography, whereby 5.0 ng/mL was the lower limit of quantitation.
Three fasted male Wistar rats are dosed by oral gavage with optionally 5 mg/kg, 30 mg/kg, or 300 mg/kg of invention compound. Animals are fed at 4 hours post dose. Blood samples are collected by conventional means in tubes containing EDTA at Times 0 (predose), 0.5, 1, 2, 4, 6, 8, 12, and 24 hours post dose. Plasma is separated from the blood and stored frozen until analyzed.
Mean plasma half-life was determined by thawing and assaying the plasma samples using high performance liquid chromatography by conventional means. A concentration of test compound of 5.0 ng/mL was the lower limit of quantitation.
Plasma half-life was calculated as the time in hours by conventional means. Drug quantitation is done by comparison to standard samples containing known amounts of test compound.
Mean bioavailability for test compound was determined by calculating area under the concentration-time curve (“AUC”) Extrap using conventional methods.

The test system of series [4] is MIA Rat (monosodium iodoacetate-induced osteoarthritis, right knee joint). Briefly: Monosodium iodoacetate-induced osteoarthritis in rat model of joint cartilage damage (MIA Rat). Format: in vivo. From the text:
One end result of the induction of osteoarthritis in this model, as determined by histologic analysis, is the development of an osteoarthritic condition within the affected joint, as characterized by the loss of Toluidine blue staining and formation of osteophytes. Associated with the histologic changes is a concentration-dependent degradation of joint cartilage, as evidenced by affects on hind-paw weight distribution of the limb containing the affected joint, the presence of increased amounts of proteoglycan or hydroxyproline in the joint upon biochemical analysis, or histopathological analysis of the osteoarthritic lesions.
The invention compounds typically are not effective for relieving joint pain when administered in an acute model, such as the instant MIA Rat model, which has a duration of just 14 or 28 days.
Generally, In the MIA Rat model on Day 0, the hind-paw weight differential between the right arthritic joint and the left healthy joint of male Wistar rats (150 g) are determined with an incapacitance tester, model 2KG (Linton Instrumentation, Norfolk, United Kingdom). The incapacitance tester has a chamber on top with an outwardly sloping front wall that supports a rat's front limbs, and two weight sensing pads, one for each hind paw, that facilitates this determination. Then the rats are anesthetized with isofluorine, and the right, hind leg knee joint is injected with 1.0 mg of mono-iodoacetate (“MIA”) through the infrapatellar ligament. Injection of MIA into the joint results in the inhibition of glycolysis and eventual death of surrounding chondrocytes. The rats are further administered either an invention compound or vehicle (in the instant case, water) daily for 14 days or 28 days.
The invention compound is typically administered at a dose of 30 mg of per kilogram of rat per day (30 mg/kg/day), but may be administered at other doses such as, for example, 10 mg/kg/day, 60 mg/kg/day, 90-mg/kg/day, or 100 mg/kg/day according to the requirements of the invention compound being studied. It is well within the level of ordinary skill in the pharmaceutical arts to determine a proper dosage of an invention compound in this model.
Administration of an invention compound in this model is optionally by oral administration or by intravenous administration via an osmotic pump. After 7 and 14 days for a two week study, or 7, 14, and 28 days for a four week study, the hind-paw weight distribution is again determined. Typically, the animals administered vehicle alone place greater weight on their unaffected left hind paw than on their right hind paw, while animals administered an invention compound show a more normal (i.e., more like a healthy animal) weight distribution between their hind paws. This change in weight distribution was proportional to the degree of joint cartilage damage. Percent inhibition of a change in hind paw joint function is calculated as the percent change in hind-paw weight distribution for treated animals versus control animals. For example, for a two week study, [formula] wherein: ΔWC is the hind-paw weight differential between the healthy left limb and the arthritic limb of the control animal administered vehicle alone, as measured on Day 14; and • ΔWG is the hind-paw weight differential between the healthy left limb and the arthritic limb of the animal administered an invention compound as measured on Day 14.
In order to measure biochemical or histopathological end points in the MIA Rat model, some of the animals in the above study may be sacrificed, and the amounts of free proteoglycan in both the osteoarthritic right knee joint and the contralateral left knee joint may be determined by biochemical analysis. The amount of free proteoglycan in the contralateral left knee joint provides a baseline value for the amount of free proteoglycan in a healthy joint. […]

The structures appear in SMILES notation. Like-named read-outs stand apart in the source and are kept apart here.

Chain of pig alpha-2-delta receptor 1 (A2DR1) (A0A287BIN3 1-1109): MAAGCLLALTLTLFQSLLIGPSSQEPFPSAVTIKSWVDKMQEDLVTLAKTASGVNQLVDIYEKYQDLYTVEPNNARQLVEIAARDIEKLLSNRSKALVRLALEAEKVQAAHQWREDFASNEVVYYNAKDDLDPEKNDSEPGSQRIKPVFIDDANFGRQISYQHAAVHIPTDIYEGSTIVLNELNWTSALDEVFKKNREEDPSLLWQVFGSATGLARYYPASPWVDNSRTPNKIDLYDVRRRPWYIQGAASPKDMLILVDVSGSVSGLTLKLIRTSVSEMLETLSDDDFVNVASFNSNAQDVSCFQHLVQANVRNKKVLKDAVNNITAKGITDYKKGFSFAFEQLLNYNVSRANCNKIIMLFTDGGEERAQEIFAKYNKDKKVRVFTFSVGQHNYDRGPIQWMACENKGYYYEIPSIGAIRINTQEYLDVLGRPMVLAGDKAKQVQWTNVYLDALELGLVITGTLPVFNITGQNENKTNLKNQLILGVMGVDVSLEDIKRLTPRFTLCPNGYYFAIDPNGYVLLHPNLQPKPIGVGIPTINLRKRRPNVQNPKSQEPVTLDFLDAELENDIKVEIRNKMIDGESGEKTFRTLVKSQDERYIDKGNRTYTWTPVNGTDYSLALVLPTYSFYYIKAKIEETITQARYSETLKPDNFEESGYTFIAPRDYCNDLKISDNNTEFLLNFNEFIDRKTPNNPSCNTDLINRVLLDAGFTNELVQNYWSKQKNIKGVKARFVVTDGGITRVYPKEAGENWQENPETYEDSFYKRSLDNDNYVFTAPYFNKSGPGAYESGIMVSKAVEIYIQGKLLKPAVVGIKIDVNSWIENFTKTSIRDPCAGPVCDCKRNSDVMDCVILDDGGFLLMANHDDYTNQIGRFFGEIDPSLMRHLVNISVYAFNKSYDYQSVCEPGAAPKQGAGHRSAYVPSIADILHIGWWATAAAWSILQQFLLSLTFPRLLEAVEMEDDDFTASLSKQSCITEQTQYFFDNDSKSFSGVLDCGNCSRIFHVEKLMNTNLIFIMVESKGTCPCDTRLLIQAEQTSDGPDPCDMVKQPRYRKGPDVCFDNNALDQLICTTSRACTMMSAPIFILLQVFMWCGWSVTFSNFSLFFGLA

`CS(=O)(=O)NC(=O)[C@@H]1C[C@@H]2CCCC[C@@H]2N1` [Example E1]: the IC50 in series [1] and in series [2] was not below 10 µM each time.
As to `CCN1[C@H](C(=O)O)C[C@@H]2CCCC[C@@H]21` [Example A3], the half-maximal inhibitory concentration (IC50) in series [1] and in series [2] was not below 10 µM throughout.
For `CN1[C@H](C(=O)O)C[C@@H]2CCCC[C@@H]21.Cl` [A1], the bioavailability in series [3] (Wistar, in vivo, po, administered orally, rat (footnote of Table 2), read-out: bioavailability) was found to be 63%. Besides, the half-life in series [3] (Wistar, rat, in vivo, po, administered orally, rat (footnote of Table 2), read-out: half-life) was found to be 10 h.
For `O=C(O)[C@]12C[C@H]1[C@@H]1CCCC[C@@H]1N2` [Example Q1], the 50% inhibitory concentration (IC50) in series [1] is not below 10 µM; in series [2], 2.6 µM.
On to `CCCN1[C@H](C(=O)O)C[C@@H]2CCCC[C@@H]21` [Example A5], for which the IC50 in series [1] and in series [2] was not below 10 µM throughout.
Consider `O=C(O)[C@@H]1C[C@@H]2CCCC[C@@H]2N1` [OHI2CA, (2S,3aS,7aS)-octahydroindole-2-carboxylic acid, reference compound], for which the figures for the concentration for half-maximal inhibition (IC50) in series [1] and in series [2] were 0.6 µM and 0.11 µM, respectively. Also, the half-life is 4.01 h in series [3] (Sprague-Dawley, rat plasma, IV, 3 mg/kg, read-out: Mean T1/2 (converted)); 4 h in series [3] (Wistar, plasma, po, administered orally, rat (footnote of Table 2), read-out: half-life); 3.78 h in series [3] (Wistar, rat plasma, PO, 5 mg/kg, read-out: Mean T1/2 (converted)). Further, the bioavailability in series [3] (Wistar, plasma, po, administered orally, rat (footnote of Table 2), read-out: bioavailability) was found to be 72%; in series [3] (Wistar, plasma, rat, PO, 5 mg/kg, read-out: Mean Bioavailability) it was 72%.
Consider `CC(C)CN1[C@H](C(=O)O)C[C@@H]2CCCC[C@@H]21` [Example A6], for which the IC50 in series [1] and in series [2] was not below 10 µM each time.
On to `COCCN1[C@H](C(=O)O)C[C@@H]2CCCC[C@@H]21` [Example A7], for which the IC50 in series [1] and in series [2] was not below 10 µM in each case.
Regarding `CC(C)(C)C1CCC2NC(C(=O)O)CC2C1` (centres unmarked) [Example O8], the IC50 in series [1] and in series [2] was not below 10 µM in each case.
For the molecule `CN1[C@H](C(=O)O)C[C@@H]2CCCC[C@@H]21.Cl` [Example A1], the “% I @ 30 mg/kg BID (%) (± SEM): inhibition of loss of hind limb joint function in MIA at Day 14” value in series [4] (30 mg/kg BID oral, 2-week MIA study, Day 14, rat) is on record as 59 ± 17%. Moreover, the IC50 in series [1] and in series [2] was not below 10 µM in each case. Further, the bioavailability in series [3] (Wistar, in vivo, rat, PO, 30 mg/kg, read-out: Mean Bioavailability) worked out at 63%. Moreover, the half-life is 25.3 h in series [3] (Wistar, rat, in vivo, po, 30 mg/kg, rat plasma, PO, 30 mg/kg, read-out: Mean T1/2 (converted)) and 11.1 h in series [3] (Wistar, rat, in vivo, po, 300 mg/kg, rat plasma, PO, 300 mg/kg, read-out: Mean T1/2 (converted)).
For `CCC1CCC2CC(C(=O)O)NC2C1` (centres unmarked) [Example O1], the values for the half-inhibitory concentration (IC50) in series [1] and in series [2] were 4.5 µM and 1.3 µM, respectively.
As for `CN(C)CC(C)(C)COC(=O)C1C[C@@H]2CCCC[C@@H]2N1` (some centres unmarked) [Example Y1], the IC50 in series [1] was 1.4 µM; in series [2], 0.29 µM.
For the molecule `CN1[C@H](C(=O)O)C[C@@H]2CCCC[C@@H]21` [[2(S),3a(S),7a(S)]-1-methyl-2,3,3a,4,5,6,7,7a-octahydroindole-2-carboxylic acid], in series [4] (30 mg/kg and 10 mg/kg doses, PO BID, 4 weeks post-MIA), the “degree of structural damage to the cartilage” value is “significantly decreased”. Also, in series [4] (30-mg/kg and 10-mg/kg doses, PO BID, MIA rat), the cartilage erosion severity entry is listed as “significantly decrease”. The “joint function limitations (differential hind-limb weight bearing)” value in series [4] (PO BID, MIA rat) was “decrease joint function limitations”. Moreover, in series [4] (all doses (3 to 30 mg/kg PO BID), 4 weeks post-MIA), the joint pain entry was “significantly decreased”.
As for `O=c1[nH]c([C@@H]2C[C@@H]3CCCC[C@@H]3N2)no1` [F1], in series [4] (via Alzet osmotic pump (footnote 3), Day 14, rat), the “% I (%) (± SEM): inhibition of loss of hind limb joint function in MIA at Day 14” value is “(ii) 59 ± 9^3%”.
On to `O=C(O)C1CC2C(CCCC2C(F)(F)F)N1` (centres unmarked) [Example O10], for which the “% I @ 10 mg/kg/day (%) (± SEM): inhibition of loss of hind limb joint function in MIA at Day 14” value in series [4] (10 mg/kg/day via osmotic pump, 2-week MIA study, Day 14, rat) worked out at 0%. For the same molecule, the IC50 in series [1] and in series [2] was not below 10 µM in each case.

By IC50 is commonly meant the concentration that inhibits the measured activity by half. The bioavailability is dose-corrected exposure relative to a reference, in per cent.

For the origin of these results see patent US20050143427A1, “[B]-fused bicyclic proline derivatives and their use for treating arthritic conditions” (priority 2003, published 2005).
